Data: patent publication US20070021430A1, “Novel crystalline form of a phosphoric acid salt of a dipeptidyl peptidase-iv inhibitor” (priority 2003, published 2007)

How the values were obtained:
[1] = solubility in water; type: physicochemical
[2] = solid-state stability / conversion of crystal form; type: physicochemical
Procedure: Form IV was prepared by heating the above monohydrate at 120° C. for about 2 h or by heating the monohydrate above 58° C. for about 8 h. Form IV is metastable and converts into the crystalline monohydrate slowly under ambient conditions and rapidly under high relative humidity (98%) at room temperature. Form IV can also be converted to anhydrate Form I in about 1 h at a temperature above 140° C.

N[C@@H](CC(=O)N1CCn2c(nnc2C(F)(F)F)C1)Cc1cc(F)c(F)cc1F [Form IV, (2R)-4-oxo-4-[3-(trifluoromethyl)-5,6-dihydro[1,2,4]triazolo[4,3-a]pyrazin-7(8H)-yl]-1-(2,4,5-trifluorophenyl)butan-2-amine dihydrogenphosphate anhydrate Form IV]
solubility in water [1]: high | conversion into the crystalline monohydrate ([2]; ambient conditions): slowly | conversion into the crystalline monohydrate ([2]; high relative humidity (98%) at room temperature): rapidly | physical stability of the crystal form ([2]; solid state): metastable | time for conversion to anhydrate Form I ([2]; temperature above 140° C.): about 1 h
